# Experimental data as given in patent US20130172273A1, “CYCLOTETRAPEPTIDES WITH PRO-ANGIOGENIC PROPERTIES” (GENETADI BIOTECH, S.L., priority 2010, published 2013).
# Experiments:
# [1] = tested on: αvβ3 integrin over-expressed human umbilical vein endothelial cells (HUVEC); assay: Endothelial cell adhesion assay (adhesion inhibition on a vitronectin surface); assay type: cell-based; conditions: HUVEC on vitronectin-coated plate, 1 h at 37° C.; FIG. 1
# Protocol: Human umbilical endothelial cell (HUVEC) was purchased from Cambrex BioScience (USA). Cells were grown on the 0.5% gelatin coated plate in CS—C Complete Medium (Sigma) and were used for experiments after three passages. DLD-1, human colon cancer cell line was purchased from LGC/ATCC (Cat. Number CCL-221), and maintained in RPMI 1640 (Sigma) supplemented with 10% FBS (Sigma). Human vitronectin was from Sigma. Peptides to be assayed were dissolved in double-distilled water at a concentration of 10 mg/ml and stored in the dark at −80°.
# HUVEC cells were grown to subconfluent state and then harvested by 0.025% trypsin/EDTA (Sigma) in one minute. Cells were preincubated with various concentrations of peptides on ice for 15 min in CS—C Medium. Same volume of vehicle was added to cells as a control. Peptide-treated cells (5×10^4 cells/100 μl/well) were plated onto a 96-well microplate which was precoated with vitronectin ([…] in PBS), and incubated for 1 h at 37° C., 5% CO^2/95% air to allow cell attachment. Cells were washed gently with PBS for three times to remove detached cells. Number of adherent cells was measured by Fluorescent Cell counting Kit (FCCK) at 535 nm (excitation at 485 nm) using a fluorescent plate reader (Bioscan). […]
# Data are expressed as the means±standard error of mean (SEM). Statistical differences among treatment groups were assessed by analysis of variance (ANOVA). […]
# [2] = tested on: 17 angiogenic and adhesion-related genes in HUVEC cells; assay: Gene regulation assay (whole human gene-expression microarray); assay type: cell-based; conditions: 10^−5M, 48 hours, FIG. 2
# Protocol: HUVEC cells were maintained in CS—C Complete Medium, grown at 50 percent of confluency and then treated with 1.00E-05 M final concentration of the peptide compounds during 48 hours.
# Total RNA was extracted from untreated control or RGD-compounds treated cells using TRIzol (Invitrogen) according to standard protocol. RNA was further purified with RNeasy Mini Kit (Qiagen) and the concentration and quality was assessed by NanoDrop spectrophotometer and Agilent 2100 Bioanalyzer, respectively. Only RNA Samples with a RIN number between […]were used in the microarray assays.
# In order to study the intracellular effect of all RGD-binding compounds, a cell-culture whole gene-expression assay was performed. HUVEC cells were treated separately with a 10^−5M concentration of the test compounds during 48 hours. The simultaneous analysis of all human gene-expression by microarray let us identify which human gene(s) are induced, inhibited or un-affected after the test compounds were bound to the receptors of the cells.
# Whole human gene expression microarray analysis was performed using Agilent Technologies (Santa Clara, Calif.). This platform comprises a two-color design with two RNA samples labelled with either Cy3 or Cy5 and hybridized to the same 44K Agilent microarray. Each array contains about 41,000 unique noncontrol 60-mer probes. RNAs from untreated and peptide treated-HUVEC cells were two-color labelled and hybridized to randomly chosen arrays a total of four times. A dye swap was performed for each sample on a different slide to remove any bias from the labelling dyes.
# For each sample, 800 ng total RNA was reverse transcribed, linear amplified, and labelled with either Cy3 or Cy5 using Agilent's Low RNA Input Linear Amplification Kit PLUS, according to manufacturer's instructions. After labelling, samples were measured on a Nanodrop microarray module for labelling efficiency and quantification. Samples were then hybridized on Agilent 4×44K whole human genome GE arrays at 65° C. for 17 h. After washing in GE washing buffer, the slide was scanned with Agilent Microarray Scanner. Feature extraction software (Version 9.5.3) was used to convert the image into gene expression data. Data were normalized by the Linear Lowess method. Genes that were 1.5-fold differentially expressed on 3 of 4 arrays were scored as significant. Furthermore, only genes with a p-value≦0.05 based on a Student's t-test were selected. Mean fold change is mean of 4 arrays. Angiogenic-related genes were classified according to Gene Ontology.
# [3] = target: αvβ3 integrin (Homo sapiens, UniProt P05106+P06756); conditions: J. Med. Chem. 2010, vol. 53(1), pp. 106-118; cited from earlier work
# [4] = of 17 angiogenic and adhesion-related genes
# Sequence of αvβ3 integrin (P06756 31-889 limits assumed): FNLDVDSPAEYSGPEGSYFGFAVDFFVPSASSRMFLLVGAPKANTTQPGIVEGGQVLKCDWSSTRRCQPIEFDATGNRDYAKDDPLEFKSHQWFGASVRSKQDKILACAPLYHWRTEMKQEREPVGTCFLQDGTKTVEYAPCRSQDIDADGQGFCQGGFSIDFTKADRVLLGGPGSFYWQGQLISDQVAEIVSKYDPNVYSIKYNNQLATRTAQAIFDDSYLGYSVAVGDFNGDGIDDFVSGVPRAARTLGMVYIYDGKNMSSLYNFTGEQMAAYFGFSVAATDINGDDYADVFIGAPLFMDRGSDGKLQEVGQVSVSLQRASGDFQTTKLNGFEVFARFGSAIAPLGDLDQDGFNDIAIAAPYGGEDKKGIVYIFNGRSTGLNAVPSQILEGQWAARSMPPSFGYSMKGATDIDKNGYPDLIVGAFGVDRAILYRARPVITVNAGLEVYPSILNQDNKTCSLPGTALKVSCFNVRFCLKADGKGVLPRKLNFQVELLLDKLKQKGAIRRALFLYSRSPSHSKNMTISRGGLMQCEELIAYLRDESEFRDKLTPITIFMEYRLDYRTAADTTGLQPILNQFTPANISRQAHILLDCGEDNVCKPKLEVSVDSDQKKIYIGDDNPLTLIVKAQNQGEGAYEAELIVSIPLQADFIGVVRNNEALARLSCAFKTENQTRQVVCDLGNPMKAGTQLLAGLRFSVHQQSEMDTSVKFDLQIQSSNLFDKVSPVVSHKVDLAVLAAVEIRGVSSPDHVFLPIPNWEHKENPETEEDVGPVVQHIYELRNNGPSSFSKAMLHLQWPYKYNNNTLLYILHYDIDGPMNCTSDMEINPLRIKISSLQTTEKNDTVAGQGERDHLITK
# Sequence of αvβ3 integrin (P06756 891-1048 limits assumed): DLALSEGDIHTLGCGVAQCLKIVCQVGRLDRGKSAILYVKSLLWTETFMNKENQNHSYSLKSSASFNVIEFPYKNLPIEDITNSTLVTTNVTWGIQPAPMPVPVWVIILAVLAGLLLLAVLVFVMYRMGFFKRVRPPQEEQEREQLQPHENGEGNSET
# Sequence of αvβ3 integrin (P05106 27-788): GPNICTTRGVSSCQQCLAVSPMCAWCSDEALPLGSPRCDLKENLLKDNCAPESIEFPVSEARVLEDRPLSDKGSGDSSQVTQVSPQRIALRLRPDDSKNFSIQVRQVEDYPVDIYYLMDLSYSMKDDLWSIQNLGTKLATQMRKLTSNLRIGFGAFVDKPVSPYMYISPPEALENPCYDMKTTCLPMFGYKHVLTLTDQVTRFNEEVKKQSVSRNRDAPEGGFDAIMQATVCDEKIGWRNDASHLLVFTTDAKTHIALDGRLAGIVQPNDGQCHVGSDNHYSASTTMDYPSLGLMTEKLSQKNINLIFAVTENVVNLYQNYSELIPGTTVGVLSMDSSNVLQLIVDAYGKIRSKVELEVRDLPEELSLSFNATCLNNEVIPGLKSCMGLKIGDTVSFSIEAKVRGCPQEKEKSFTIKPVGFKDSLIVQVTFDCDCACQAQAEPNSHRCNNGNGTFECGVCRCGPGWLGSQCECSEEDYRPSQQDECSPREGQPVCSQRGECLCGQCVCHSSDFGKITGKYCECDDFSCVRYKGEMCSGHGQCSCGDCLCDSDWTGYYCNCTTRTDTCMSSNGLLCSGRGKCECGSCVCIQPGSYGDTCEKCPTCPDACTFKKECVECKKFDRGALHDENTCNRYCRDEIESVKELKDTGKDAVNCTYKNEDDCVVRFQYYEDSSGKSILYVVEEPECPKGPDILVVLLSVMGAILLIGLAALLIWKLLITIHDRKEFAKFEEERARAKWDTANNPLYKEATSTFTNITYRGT
compound,measurement,setting,value
cyclo-[Asp-(beta-Lactam)-Arg [Example 24],adhesion inhibition (% of cell adhesion vs. concentration),[1],comparable adhesion inhibition as cilengitide and the RGD-cyclopentapeptides
same,pattern of gene-expression almost opposite (activation vs inhibition) compared with cilengitide,[2]; of 17 genes,15 of 17
c[(R)-βPheψ(NHCO)Aspψ(NHCO)Gly-Arg],inhibiting the αvβ3 integrin-mediated cell adhesion,[3],good activity
N=C(N)NCCC[C@@H]1NC(=O)CN2C(=O)C(NC(=O)[C@H](CC(=O)O)NC(=O)CNC1=O)[C@H]2[C@H](O)CO (stereo partly shown) [compound 1],pattern of gene-expression conserved relative to cilengitide,[2]; of 17 genes,15/17
CC1(C)C(=O)N[C@@H](CCCNC(=N)N)C(=O)NCC(=O)N[C@@H](CC(=O)O)C(=O)NC2(Cc3ccccc3)CN1C2=O (stereo partly shown) [compound 2],pattern of gene-expression conserved relative to cilengitide,[2]; of 17 genes,14 of 17
"CC(C)[C@H]1C(=O)N[C@@H](CCCN=C(N)N)C(=O)NCC(=O)N[C@@H](CC(=O)O)C(=O)N[C@H](Cc2ccccc2)C(=O)N1C [cilengitide, cyclo(Arg-Gly-Asp-(D)Phe-N(Me)Val)]",genes activated after treatment,[2]; [4],10 genes
same,genes blocked after treatment,[2]; [4],7 genes
